Square brackets hold non-standard residues; d marks the D form. Ends that are not written are not given here. Peptide text beside a SMILES is read from it. * marks the point of attachment. pS = N[C@@H](COP(=O)(O)O)C(=O)O; Cbz = O=C(OCc1ccccc1)*
Columns and labels:
[1] = target: Pin1 (Homo sapiens, UniProt Q13526); conditions: Daum et al. 2006; cited from earlier work
[2] = tested on: JNK signaling; test: JNK signaling in cerebellar granule neurons (phosphorylation of c-Jun and BIMEL); type: cell-based, rat; conditions: granule neurons treated for 5 h with 5 μM MG132
Description: FIG. 1C is a series of immunoblot photographs. Lysates of cerebellar granule neurons untreated or treated for 5 h with 5 μM MG132 were subjected to a pulldown with GST-Pin1 WW, followed by immunoblotting for BIM. Lower panels show the expression of BIMEL and phosphorylated c-Jun.
The phosphorylation of BIMEL at Ser65 triggers apoptosis specifically in neurons but not in non-neural cells. A critical regulatory post-phosphorylation event is the prolyl isomerization of proteins at sites of proline-dependent phosphorylation. A major function of Pin1 is to drive cells through mitosis in proliferating cells. Pin1 is also highly expressed in the nervous system. To assess whether Pin1 binds to Ser65-phosphorylated BIMEL in vitro, we used a GST pulldown assay. We expressed BIMEL in 293T cells alone or together with a constitutively active form of the kinase MEKK1 (MEKK1Δ), an upstream activator of JNK. Expression of MEKK1Δ results in the robust phosphorylation of BIMEL at Ser65, which is reflected by a mobility shift of BIMEL (FIG. 1A). Recombinant GST-Pin1, but not GST, specifically co-precipitated phosphorylated but not unphosphorylated BIMEL from cell lysates (FIG. 1A). […] In other experiments, we tested if a recombinant GST fusion protein containing the WW domain of Pin1 associates with BIMEL. The WW domain of Pin1 interacts specifically with phosphoSer/Thr-Pro motifs. […]

[3] = tested on: interaction of Pin1 and JIP3; test: Co-immunoprecipitation of endogenous Pin1 and JIP3 in granule neurons; type: cell-based, rat; conditions: exposure of granule neurons to JNK activating stimuli
Description: Lysates from granule neurons that were kept in conditioned full medium (CM) or starved for 2 h (Starv) were immunoprecipitated using a JIP3 antibody, followed by immunoblotting for Pin1. Left panels show the expression of JIP3 and Pin1.
To determine whether the binding of Pin1 to JIP3 is regulated by an apoptotic stimulus, we measured the interaction of endogenous Pin1 and JIP3 in granule neurons that were left in full medium (conditioned medium, CM) or that were starved for two hours.

[4] = target: T1, interaction of Pin1 with JIP3 (Homo sapiens, UniProt Q13526); test: GST-Pin1 pulldown with increasing Pintide, Pin1-JIP3 interaction; type: binding; set-up: dose or concentration left out as unconfirmed; conditions: lysates of 293T cells transfected with FLAG-JIP3, Pintide 0, 2.5, 5, 10, 25
T1 construct: made in house; FLAG-JIP3: lysate of transfected 293T cells
T1 sequence (Q13526 whole entry): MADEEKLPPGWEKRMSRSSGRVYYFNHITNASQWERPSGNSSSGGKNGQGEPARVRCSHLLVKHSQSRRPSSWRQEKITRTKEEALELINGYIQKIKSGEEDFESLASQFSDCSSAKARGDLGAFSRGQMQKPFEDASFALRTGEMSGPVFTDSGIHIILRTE
Description: (§1) FIG. 2G is a series of immunoblot photographs. Lysates of 293T cells transfected with FLAG-JIP3 or FLAG-BIMEL together with FLAG-MEKK1Δ were subjected to a GST-Pin1 pulldown assay in the presence of increasing amount of Pintide peptide ([…]), followed by immunoblotting for FLAG and GST. Representative immunoblots of three independent experiments are shown.
(§2) GST-pulldown assays were performed as described by Ryo et al., Mol. Cell 12: 1413-1426, 2003. Immunoprecipitations and subcellular fractionations were performed as described by Konishi et al., Science 303: 1026-1030, 2004. The postnuclear supernatant was further centrifuged at 10,000 g for 30 min to pellet the mitochondrially-enriched heavy membrane (HM) fraction. Antibodies to BIM (Stressgen); phospho65 BIM antibody (Biosource); HA, HSP60, JIP3, GST (Santa Cruz Biotechnology); FLAG (Sigma); P-c-Jun, MKK7, Pin1 (Cell Signaling); SP1, JNK (Upstate); GFP (Molecular Probes) are available commercially.
(§3) Thus, similar to BIMEL, JIP3 interacts with Pin1 in a phosphorylation-dependent manner.

[5] = target: T2, interaction of Pin1 with BIMEL (Homo sapiens, UniProt Q13526); test: GST-Pin1 pulldown with increasing Pintide, Pin1-BIMEL interaction; type: binding; conditions: lysates of 293T cells transfected with FLAG-BIMEL and FLAG-MEKK1Δ, Pintide 0, 2.5, 5, 10, 25, 50 mM
T2 construct: made in house; FLAG-BIMEL: lysate of 293T cells co-transfected with FLAG-MEKK1Δ
T2 sequence (Q13526 whole entry): as above
Description: as §1, §2, §3

Sequence of Pin1 (Q13526 whole entry, species assumed): as the sequence (Q13526 whole entry) above

COc1ccc(F)cc1C(=O)C1(C)CCc2ccccc21 (racemic) [rac-9]
inhibition of Pin1 [1]: inhibit Pin1

COc1ccc(F)cc1C(=O)[C@]1(C)CCc2ccccc21 [(R)-9]
inhibition of Pin1 [1]: inhibit Pin1

CC(C)C[C@@H](C=O)NC(=O)[C@H](CC(C)C)NC(=O)[C@H](CC(C)C)NC(=O)OCc1ccccc1 [MG132] (Cbz-Leu-Leu-Leu-aldehyde)
JNK signaling [2]: activated JNK signaling | interaction of Pin1 and JIP3 [3]: led to a decrease

OO [hydrogen peroxide]
interaction of Pin1 and JIP3 [3]: led to a decrease

WFYpSPRLKK (WFY[pS]PRLKK) [Pintide]
disruption of the interaction of Pin1 with JIP3 [4]: disrupted the interaction of Pin1 with JIP3 and BIMEL in a dose-dependent manner | disruption of the interaction of Pin1 with BIMEL [5]: disrupted the interaction of Pin1 with JIP3 and BIMEL in a dose-dependent manner

Reference: patent publication US7786090B2, “Methods and compositions for treating and preventing neurologic disorders” (President and Fellows of Harvard College, priority 2006, dated 2010)
